Measurements reported in ChEMBL document CHEMBL3817749, “1,3-Oxazin-6-one Derivatives and Bohemamine-Type Pyrrolizidine Alkaloids from a Marine-Derived Streptomyces spinoverrucosus” (J Nat Prod, 2016).
Activity calls are given as the source filed them.

Experiments:
Homo sapiens = species on record: Homo sapiens; experiment: Cytotoxicity against human HCC1171 cells assessed as reduction in cell viability incubated for 96 hrs by Cell-titer Glo reagent based assay; format: functional
A549 = experiment: Cytotoxicity against human A549 cells assessed as reduction in cell viability incubated for 96 hrs by Cell-titer Glo reagent based assay; format: functional
Bacillus subtilis = experiment: Antibacterial activity against Bacillus subtilis assessed as zones of growth inhibition incubated for 24 hrs by […]; format: functional, organism-based
HCC366 = experiment: Cytotoxicity against human HCC366 cells assessed as reduction in cell viability incubated for 96 hrs by Cell-titer Glo reagent based assay; format: functional
Pseudomonas aeruginosa = experiment: Antibacterial activity against Pseudomonas aeruginosa assessed as zones of growth inhibition incubated for 24 hrs by […]; format: functional, organism-based
HCC44 = experiment: Cytotoxicity against human HCC44 cells assessed as reduction in cell viability incubated for 96 hrs by Cell-titer Glo reagent based assay; format: functional

CC(C)=Cc1nc(N2C(=O)CC[C@@H]2C)cc(=O)o1
inactive: Activity (Homo sapiens) | Activity (A549) | growth inhibition (GI) (Bacillus subtilis) | Activity (HCC366) | growth inhibition (GI) (Pseudomonas aeruginosa) | Activity (HCC44)

CC(C)=CC(=O)NC1=CC(=O)[C@]2(C)[C@H](O)[C@@H](O)[C@H](C)N12
inactive: Activity (Homo sapiens) | Activity (A549) | growth inhibition (GI) (Bacillus subtilis) | Activity (HCC366) | growth inhibition (GI) (Pseudomonas aeruginosa) | Activity (HCC44)

CC(C)=CC(=O)NC1=CC(=O)[C@@]2(O)CC[C@H](C)N12
inactive: Activity (Homo sapiens) | Activity (A549) | growth inhibition (GI) (Bacillus subtilis) | Activity (HCC366) | growth inhibition (GI) (Pseudomonas aeruginosa) | Activity (HCC44)

CC(C)=CC(=O)NC1=CC(=O)[C@]2(C)C=C[C@H](C)N12
inactive: Activity (Homo sapiens) | Activity (A549) | growth inhibition (GI) (Bacillus subtilis) | Activity (HCC366) | growth inhibition (GI) (Pseudomonas aeruginosa) | Activity (HCC44)

C/C=C(\C)C(=O)NC1=CC(=O)[C@]2(C)CC[C@H](C)N12
inactive: Activity (Homo sapiens) | Activity (A549) | growth inhibition (GI) (Bacillus subtilis) | Activity (HCC366) | growth inhibition (GI) (Pseudomonas aeruginosa) | Activity (HCC44)

CC(C)=Cc1nc(N2C(=O)C[C@H](O)[C@@H]2C)cc(=O)o1
inactive: Activity (Homo sapiens) | Activity (A549) | growth inhibition (GI) (Bacillus subtilis) | Activity (HCC366) | growth inhibition (GI) (Pseudomonas aeruginosa) | Activity (HCC44)

C[C@H]1CC[C@@]2(C)C(=O)C=C(NC(=O)c3ccccc3)N12
inactive: Activity (Homo sapiens) | Activity (A549) | growth inhibition (GI) (Bacillus subtilis) | Activity (HCC366) | growth inhibition (GI) (Pseudomonas aeruginosa) | Activity (HCC44)

CC(C)/C=C/C(=O)NC1=CC(=O)[C@]2(C)CC[C@H](C)N12
inactive: Activity (Homo sapiens) | Activity (A549) | growth inhibition (GI) (Bacillus subtilis) | Activity (HCC366) | growth inhibition (GI) (Pseudomonas aeruginosa) | Activity (HCC44)
